Laboratory results from patent US20040014678A1, “Prevention of beta-amyloid neurotoxicity by blockade of the ubiquitin-proteasome proteolytoc pathway” (priority 2003, published 2004).
Entries after “also recorded” stand apart in the source; their conditions may differ. Residues, ends and D or L forms follow the SMILES beside them.

Tests used:
rat cortical neurons [1] = test system: rat cortical neurons
Experimental: Cells are treated with the agents indicated in the respective heading (e.g. LACTA for lactacystin) and then stained with fluorescein and propidium. […] Data are mean±SE (bars) values.
(§2) Neurons were prepared from 17-day-old rat fetuses, according to a previously published protocol (Hampson et al. (1998)). In brief, the fetuses were decapitated, the brains were dissected and placed in phosphate-buffered saline (PBS) containing 4.5 g/L glucose. Hemispheres were separated, and meninges were carefully removed. Cortical tissues were freed from subcortical structures and cut into small fragments. Tissues were incubated with papain activated with cysteine for 10 min at 37° C. Papain was neutralized with a solution of ovomucoid and bovine serum albumin. Finally, tissues were mechanically dissociated until a single-cell suspension was obtained. Cells were plated in poly-D-lysine-coated 3.5-cm-diameter Petri dishes, 48-multiwell plates, or tissue culture flasks.
Viability of cortical neurons was assessed with a propidium iodide exclusion test and fluorescein diacetate incorporation assessment, according to a previously published protocol. (Favit et al. (1992)). Rat cortical neurons seeded on 3.5-cm-diameter dishes were treated, washed with PBS, and incubated with a PBS solution containing 36 μM fluroescein diacetate and 7 μM propidium iodide for 3 min at room temperature. Cell viability was assessed by counting 100 cells per microscope field (using a 20× lens) for the number of fluorescein-labeled neurons versus propidium-positive cells. Experiments were conducted in duplicate and repeated at least three times. Statistical validity was assessed by ANOVA followed by a post hoc test.

[2] = test system: ubiquitination of neuronal proteins; assay: Western blot of ubiquitinated neuronal proteins; assay type: cell-based, rat; details: for ubiquitinated proteins, agent alone: 72 h
Experimental: Lactacystin alone (lane 3), by blocking proteasome activity, causes an accumulation of ubiquitinated protein, although to a lesser extent than β-amyloid.
(§1) Hemispheres were separated, and meninges were carefully removed.
Western blot analysis was performed as previously described (Favit et al., 1998) with the following modifications. Proteins were extracted from neuronal pellets in a PBS solution containing 1 mg/ml leupeptin, 1 mg/ml pepstatin, 1 mg/ml chymostatin, 1 mg/ml antipain, and 0.2 mM phenylmethylsulfonyl fluoride. (Vannucci et al. (1998)). The crude homogenate was balanced with sample buffer containing 0.5 M Tris-HCl (pH 6.8), 10% glycerol, 2% sodium dodecyl sulfate, and 0.5% 2-mercaptoethanol to a final volume of 20 μl with a total protein concentration of […]. Sodium dodecyl sulfate-polyacrylamide gel electrophoresis was carried out in a 4-20% acrylamide gradient gel 1.5 mm thick. (Novex, San Diego, Calif., U.S.A.). Twenty micrograms per lane of protein of the crude homogenate was electrophoresed and transferred overnight onto a nitrocellulose membrane (Schleicher & Schuell). The membrane was blocked in 1% bovine serum albumin in 95% Tris-buffered saline for 1 h. Immunodetection of ubiquitin was obtained by exposing the membrane to an anti-ubaiqtin polyclonal primary antibody at 1:1,000 dilution for 1 h. Blots were then incubated with an anti-mouse alkaline phosphatase-conjugated secondary antibody for 1 h. Finally, the nitrocellulose was stained with a solution containing 0.1 M Tris-HCl (pH 9.6), 0.001 M MgCl2, 1% nitro blue terrazolium (Pierce), and 1% 5-bromo-4chloro-3-indolyl phosphate toluidine salt (Pierce). All reactions were carried out at room temperature. At least three independent sets of experiments were conducted.
Blocking ubiquitination with Leu-Ala or inhibiting proteasome activity with lactacystin prevent β-amyloid-induced neurotoxicity. […] Therefore, the ability of β-amyloid to cause ubiquitination of neuronal proteins was tested. Neurons were incubated with β-amyloid for 72 h in the presence of 50 nM lactacystin or 2 mM Leu-Ala and harvested. […] As a consequence of this, the target proteins are not degraded by the proteasome.

rat cortical neurons [3] = assay: cells; assay type: cell-based
Experimental: FIGS. 3A and 3B show inhibition of β-amyloid (β-am) neurotoxicity by lactacystin (lacta) and Leu-Ala. Cell viability is assessed using the MTT assay. The conversion of tetrazolium salts is measured using a spectrophotometer and expressed as absorbance in arbitrary units. […] Lacta inhibits the neurotoxic effect cause by β-am in a concentration-dependent manner (•[formula]•).
as §1
Neurons plated at a density of 0.4×10^6 in 48-multiwell plates were exposed for the appropriate times to the test agents. MTT reduction was used to measure mitochondrial activity as an index of cell viability. The reaction was started by adding 0.4 mg/ml MTT in a PBS solution to the neurons. After 16 h of incubation at 37° C., 100 μl of pure dimethyl sulfoxide is added to each well. After an additional 12 h of incubation, absorbance values at 570 nm were determined with an automatic microplate reader, using 630 nm as a reference wavelength. Experiments were done in 48-multiwell plates allowing eight samples for each experimental point. Experiments were repeated at least three times.

rat cortical neurons [4] = assay: Morphologic analysis of β-amyloid-induced cortical neuron damage (phase-contrast); details: for neuronal viability, agent alone: without β-amyloid
Experimental: FIGS. 1A, 1B, 1C and 1D provide morphologic analysis of β-amyloid-induced cortical neuron damage shown in representative phase-contrast images of cortical neurons at 13 days in vitro. Cells are treated for 5 days with vehicle (FIG. 1A), 50 nM lactacystin (FIG. 1B), 20 μM β-amyloid (FIG. 1C), or 20 μM β-amyloid+50 nM lactacystin (FIG. 1D).
as §2

For `CC(=O)N[C@@H](CSC(=O)[C@]1([C@@H](O)C(C)C)NC(=O)[C@H](C)[C@@H]1O)C(=O)O` [lactacystin], the β-amyloid-induced propidium staining (rat cortical neurons [1]; β-amyloid combined with 50 nM lactacystin) was “reversed to near control levels”, the “ubiquitinated proteins, agent alone” value [2] was “increases the presence of ubiquitinated protein” and the β-amyloid-induced ubiquitination ([2]; β-amyloid 72 h with 50 nM lactacystin) was “not affected”. For the same compound, the “cell damage caused by β-am” value (rat cortical neurons [3]; 50 nM lacta with β-am) was “clear reduction of the cell damage caused by β-am”, the EC50 (rat cortical neurons [3]; Rattus norvegicus, Cortical neurone, in presence of β-amyloid, read-out: apparent EC50 for blocking β-amyloid toxicity) was 30 nM and the “prevention of toxic effect of β-amyloid at the highest concentration tested” value (rat cortical neurons [3]; highest concentration tested) was “almost entirely prevents the toxic effect of β-amyloid”. The “concentration at which the protective effect is already statistically significant” value (rat cortical neurons [3]; in presence of β-amyloid) was 25 nM, the “concentration at which the protective effect reaches an apparent plateau” value (rat cortical neurons [3]; in presence of β-amyloid) was 500 nM and the “β-amyloid-induced morphologic degeneration of neurons” value (rat cortical neurons [4]; 50 nM lactacystin with 20 μM β-amyloid, 5 days) was “prevented β-amyloid-induced morphologic degeneration of neurons”. For the same compound, the “neuronal viability, agent alone” value (rat cortical neurons [4]) was “did not affect neuronal viability”.

“β-Amyloid 1-40 [β-amyloid fragment 1-40]” was tested, and the fluorescein sequestration (rat cortical neurons [1]) was “not able to sequester fluorescein”, the “number of viable cells (cell counts)” value (rat cortical neurons [1]) was “significantly reduces the number of viable cells” and the propidium iodide staining (rat cortical neurons [1]) was “clear staining with propidium iodide”. For the same compound, the “ubiquitinated proteins, agent alone” value [2] was “marked increase of ubiquitination of multiple proteins” and the “viable cells (MTT)” value (rat cortical neurons [3]) was “greatly decreases viable cells”.

With `CC(C)C[C@H](N)C(=O)N[C@@H](C)C(=O)O` [Leu-Ala, leucine-alanine dipeptide] (H-Leu-Ala-OH) the “ubiquitinated proteins, agent alone” value [2] was “does not affect protein ubiquitination in control cells”, the β-amyloid-induced ubiquitination ([2]; β-amyloid 72 h with 2 mM Leu-Ala) was “markedly reduced; also recorded: completely prevented” and the “cell damage caused by β-am” value (rat cortical neurons [3]; 2 mM Leu-Ala with β-am) was “clear reduction of the cell damage caused by β-am”. For the same compound, the “neuronal viability, agent alone” value (rat cortical neurons [4]) was “did not affect neuronal viability”.

In the case of `CC(C)C[C@H](NC(=O)[C@H](C)N)C(=O)O` [Ala-Leu] (H-Ala-Leu-OH), the “reduction of β-amyloid toxicity” value (rat cortical neurons [3]; reverse dipeptide, data not shown) is reported as “does not cause any reduction of β-amyloid toxicity”.
